Drawing on PubChem BioAssay (NCI), this text covers TGI and GI50 for 14 compounds.

Where “and” joins values, the source holds several entries; their conditions need not be identical. Equal entries are not always repeated.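 Growth conditions: 96-well plates. Treatment: test compound, 48 hours, 5 concentrations. Analysis: linear interpolation between bracketing concentrations; unreached endpoints set to highest concentration. GI50 = concentration required for 50% inhibition of growth. TGI is the concentration that stops growth completely.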

Among the test systems are MOLT-4 leukemia; K-562 leukemia; A498 renal; SF-268 CNS; SK-MEL-28 melanoma; EKVX NSCLC; NCI-H522 lung; OVCAR-4 ovarian; HL-60(TB) leukemia.
Assay in all cases: NCI-60 cell line screen, 48 h

`Cn1c(CBr)nc2c1C(=O)c1nc(CBr)[nH]c(=O)c1C2=O`: the TGI in the assay on MOLT-4 leukemia, in the assay on K-562 leukemia, in the assay on A498 renal, in the assay with SF-268 CNS, in the assay with SK-MEL-28 melanoma and in the assay with EKVX NSCLC was above 100 µM throughout. This compound also came in with a TGI in the assay with NCI-H522 lung above 100 µM.
For the compound `Nc1ccc2n[se]nc2c1`, the TGI in the assay on MOLT-4 leukemia, in the assay on OVCAR-4 ovarian, in the assay on K-562 leukemia, with A498 renal, in the assay on HL-60(TB) leukemia and in the assay on SF-268 CNS was above 100 µM each time. For the same compound, the TGI with SK-MEL-28 melanoma and in the assay with EKVX NSCLC was above 100 µM in each case.
Take `CCOC(=O)c1c(-c2ccccc2)[n+](=O)c2cc(Cl)c(Cl)cc2n1[O-]`: the GI50 in the assay on MOLT-4 leukemia was above 100 µM; in the assay on OVCAR-4 ovarian, 2.48 µM; in the assay with K-562 leukemia it was 3.29 µM; in the assay with A498 renal, 18.4 µM; in the assay with HL-60(TB) leukemia, 2.68 µM; in the assay with SF-268 CNS, 16.6 µM. Further, the GI50 with SK-MEL-28 melanoma was 13.7 µM; in the assay on EKVX NSCLC it was 17.6 µM; with NCI-H522 lung, 14.2 µM. The TGI with MOLT-4 leukemia was above 100 µM; with OVCAR-4 ovarian, 6.62 µM; with K-562 leukemia, above 100 µM; in the assay on A498 renal, 33.9 µM; in the assay on HL-60(TB) leukemia, above 100 µM; in the assay on SF-268 CNS, 33.9 µM. Also, the values for the TGI with SK-MEL-28 melanoma, with EKVX NSCLC and with NCI-H522 lung were 36.3 µM, 34.5 µM and above 100 µM, respectively.
On to `CC1(C)CCC(Sc2ccccc2)O1` (stereo unspecified), for which the TGI with MOLT-4 leukemia, in the assay with OVCAR-4 ovarian, with K-562 leukemia, in the assay on A498 renal, in the assay with HL-60(TB) leukemia and in the assay on SF-268 CNS was above 100 µM in each case. For the same compound, the TGI with SK-MEL-28 melanoma and with EKVX NSCLC was above 100 µM throughout.
For the compound `COC1=C(N)C(=O)c2nc(-c3nc(C(=O)O)c(C)c(-c4ccc(OC)c(OC)c4O)c3N)ccc2C1=O`, the TGI was 0.0805 µM and 0.0445 µM and < 0.0167 µM with MOLT-4 leukemia; 0.0183 µM and 0.0416 µM and 0.0515 µM in the assay on OVCAR-4 ovarian; 0.277 µM and 0.102 µM and 0.0281 µM in the assay with K-562 leukemia; 0.00499 µM and 0.0204 µM in the assay with HL-60(TB) leukemia; 0.00904 µM and 0.0276 µM and < 0.01 µM in the assay on SF-268 CNS; 0.0349 µM and 0.0896 µM in the assay on EKVX NSCLC. The TGI in the assay on NCI-H522 lung was 0.0214 µM and < 0.0111 µM. Moreover, the GI50 in the assay with K-562 leukemia was 0.0237 µM and 0.0112 µM and < 0.01 µM; in the assay with A498 renal, 0.00128 µM; with SF-268 CNS, 0.00186 µM and 0.000781 µM and < 0.01 µM; in the assay with EKVX NSCLC, 0.00938 µM and 0.0215 µM; in the assay with NCI-H522 lung, 0.000527 µM and 0.00336 µM and < 0.01 µM.
Consider `Cc1ccc(C(=O)CC2(O)C(=O)Nc3c(C)cc(Cl)cc32)cc1` (stereo unspecified), for which the TGI in the assay with MOLT-4 leukemia, with OVCAR-4 ovarian, in the assay on K-562 leukemia, in the assay on HL-60(TB) leukemia, in the assay on SF-268 CNS and in the assay with SK-MEL-28 melanoma was above 100 µM throughout. Further, the TGI in the assay on EKVX NSCLC and with NCI-H522 lung was above 100 µM each time.
On to `CC(=O)C1CCN(c2ccccc2)C1` (stereo unspecified), for which the TGI in the assay on MOLT-4 leukemia, in the assay on OVCAR-4 ovarian, in the assay with K-562 leukemia, in the assay with A498 renal, in the assay on HL-60(TB) leukemia and in the assay with SF-268 CNS was above 100 µM in each case. Besides, the TGI in the assay on SK-MEL-28 melanoma, in the assay with EKVX NSCLC and with NCI-H522 lung was above 100 µM throughout.
For `COc1cc[c]([Sn]([c]2ccc(OC)cc2)([c]2ccc(OC)cc2)[c]2ccc(OC)cc2)cc1`, the GI50 was 10.7 µM with MOLT-4 leukemia; 16.8 µM with OVCAR-4 ovarian; 16.2 µM in the assay on K-562 leukemia; 14.2 µM with A498 renal; 29.7 µM in the assay with SF-268 CNS; 35 µM in the assay on EKVX NSCLC. Besides, the TGI with MOLT-4 leukemia was 39 µM; in the assay on OVCAR-4 ovarian it was 62.8 µM; in the assay on K-562 leukemia, 56.1 µM; in the assay on A498 renal, 76.3 µM; in the assay on SF-268 CNS it was above 100 µM; with EKVX NSCLC, above 100 µM.
For `CC(C)(CN1C(=O)C(Cl)=C(Cl)C1=O)CN1C(=O)C(Cl)=C(Cl)C1=O`, the TGI in the assay with MOLT-4 leukemia was 30.1 µM; with OVCAR-4 ovarian it was 43.4 µM; in the assay with K-562 leukemia, 7.1 µM; in the assay with A498 renal, above 59 µM; in the assay with HL-60(TB) leukemia, 2.84 µM; in the assay with SF-268 CNS, 41.5 µM. Moreover, the results for the TGI with SK-MEL-28 melanoma, in the assay with EKVX NSCLC and in the assay with NCI-H522 lung were 20 µM, 51.5 µM and 4.91 µM, respectively.
For the compound `Cc1nc(N)nc(N)c1CCCCc1ccc(N)cc1`, the TGI with MOLT-4 leukemia is 35.2 µM; in the assay on OVCAR-4 ovarian, 25.8 µM; with K-562 leukemia, 16.4 µM; in the assay with HL-60(TB) leukemia, 19.4 µM; in the assay on SF-268 CNS it was 17.3 µM; with SK-MEL-28 melanoma, 23.5 µM. Moreover, the TGI was 27.3 µM with EKVX NSCLC and 16 µM with NCI-H522 lung.
As to `CC(C)(C)c1cc(CCC(=O)Nc2ccc(Cl)cc2)[nH]c(=S)n1`, the TGI in the assay on MOLT-4 leukemia, with OVCAR-4 ovarian, with K-562 leukemia, in the assay with HL-60(TB) leukemia, in the assay with SF-268 CNS and in the assay on SK-MEL-28 melanoma was above 100 µM in each case. The TGI in the assay on EKVX NSCLC and in the assay with NCI-H522 lung was above 100 µM each time.
With `COC(=O)C(=O)Cc1nc2ccccc2s1`, the TGI in the assay on MOLT-4 leukemia, with OVCAR-4 ovarian, in the assay on K-562 leukemia, in the assay on A498 renal, in the assay on HL-60(TB) leukemia and with SF-268 CNS was above 100 µM in each case. Further, the TGI in the assay with SK-MEL-28 melanoma, in the assay with EKVX NSCLC and in the assay on NCI-H522 lung was above 100 µM each time.
Take `CN=c1ss/c(=N\C(=S)N(C)C)n1C`: the TGI with MOLT-4 leukemia, with OVCAR-4 ovarian, with K-562 leukemia, in the assay on A498 renal, with HL-60(TB) leukemia and in the assay on SF-268 CNS was above 100 µM in each case. The TGI with SK-MEL-28 melanoma and with EKVX NSCLC was above 100 µM each time.
On to `COC(=O)CCSC(=O)Nc1ccc(N=Nc2ccccc2)cc1`, for which the TGI is above 100 µM with MOLT-4 leukemia; above 100 µM in the assay on OVCAR-4 ovarian; above 100 µM with K-562 leukemia; 62.1 µM in the assay on A498 renal; above 100 µM with SF-268 CNS; above 100 µM with SK-MEL-28 melanoma. Besides, the TGI in the assay with EKVX NSCLC is above 100 µM.
